Test results published in patent US11535630B2, “Apelin receptor (APJ) agonists and uses thereof” (Research Triangle Institute, priority 2015, dated 2022).
Where two headings read alike, the source gives them in different places.

Molecular target: T1, apelin receptor (APJ) (Homo sapiens, UniProt P35414)
T1 sequence (P35414 1-380): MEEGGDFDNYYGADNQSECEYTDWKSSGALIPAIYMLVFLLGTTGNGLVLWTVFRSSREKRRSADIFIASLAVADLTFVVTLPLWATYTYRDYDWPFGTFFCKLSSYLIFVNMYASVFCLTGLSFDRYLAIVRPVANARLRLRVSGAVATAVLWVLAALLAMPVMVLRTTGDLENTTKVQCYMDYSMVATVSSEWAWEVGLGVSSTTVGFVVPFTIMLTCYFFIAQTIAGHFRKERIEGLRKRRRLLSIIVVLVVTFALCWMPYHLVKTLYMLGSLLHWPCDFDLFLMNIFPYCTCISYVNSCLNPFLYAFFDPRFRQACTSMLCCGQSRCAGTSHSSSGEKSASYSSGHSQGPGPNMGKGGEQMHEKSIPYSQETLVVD
Experiment: In vitro apelin agonist activity (methods of Giddings et al., Apelin-13 as positive control)
Assay type: cell-based
Details: in vitro apelin agonist activity, methods of Giddings et al., Apelin-13 as positive control
Description: Characterization of the Apelin Agonist Activity of the Compounds
1:39-47, the contents of which are hereby incorporated by reference in its entirety. Using the methods described in Giddings et al. and Apelin-13 as a positive control.

EC50 (read-out: EC50 (nM) Ave) [nM]	SMILES	EC50 (EC50 (nM) Ave) [nM]
103	CC(F)(F)c1ccccc1-c1cc(C(=O)N[C@@H](CCN2C[C@@H](F)[C@@H](F)C2)CC(=O)O)nn1C1CCCC1 [compound 598, (3S)-3-({1-cyclopentyl-5-[2-(1,1-difluoroethyl)phenyl]-1H-pyrazol-3-yl}formamido)-5-[cis-3,4-difluoropyrrolidin-1-yl]pentanoic acid]	
> 10000	COc1cccc(OC)c1-c1cc(C(=O)N[C@H]2CCN(Cc3ccncc3)C(=O)C2)nn1C1CCCC1 [compound 315, 1-cyclopentyl-5-(2,6-dimethoxyphenyl)-N-[(4S)-2-oxo-1-(pyridin-4-ylmethyl)piperidin-4-yl]-1H-pyrazole-3-carboxamide]	
544	CC(C)Cn1nc(C(=O)N[C@@H](CCN2CCCC(F)(F)C2)CC(=O)O)cc1-c1ccccc1C(F)(F)F [compound 565, (3S)-5-(3,3-difluoropiperidin-1-yl)-3-{[1-(2-methylpropyl)-5-[2-(trifluoromethyl)phenyl]-1H-pyrazol-3-yl]formamido}pentanoic acid]	
1160	O=C(O)C[C@H](CCN1CC[C@@H](F)C1)NC(=O)c1cc(-c2ccccc2C(F)(F)F)n(C2CCCC2)n1 [compound 590, (3S)-3-({1-cyclopentyl-5-[2-(trifluoromethyl)phenyl]-1H-pyrazol-3-yl]formamido)-5-[(3R)-3-fluoropyrrolidin-1-yl]pentanoic acid]	
1530	COc1cccc(OC)c1-c1cc(C(=O)N[C@@H](CCN2CCCCC2)Cc2nnc(C)o2)nn1C1CCCC1 [compound 343, 1-cyclopentyl-5-(2,6-dimethoxyphenyl)-N-[(2S)-1-(5-methyl-1,3,4-oxadiazol-2-yl)-4-(piperidin-1-yl)butan-2-yl]-1H-pyrazole-3-carboxamide]	
> 10000	O=C(C[C@H](CCN1CCCCC1)NC(=O)c1cc(-c2cncnc2)n(C2CCCC2)n1)NC1CCC1 [compound 368, (3S)-N-cyclobutyl-3-{[1-cyclopentyl-5-(pyrimidin-5-yl)-1H-pyrazol-3-yl]formamido}-5-(piperidin-1-yl)pentanamide]	
176	O=C(C[C@H](CCNC(=O)C1COC1)NC(=O)c1cc(-c2ccccc2C(F)(F)F)n(C2CCCC2)n1)NC1CCC1 [compound 539, (3S)-N-cyclobutyl-3-({1-cyclopentyl-5-[2-(trifluoromethyl)phenyl]-1H-pyrazol-3-yl}formamido)-5-(oxetan-3-ylformamido)pentanamide]	
	COc1cccc(OC)c1-c1cc(C(=O)N[C@@H](CCc2ccccc2)C(=O)O)nn1CC(C)C [compound 311, (2S)-2-{[5-(2,6-dimethoxyphenyl)-1-(2-methylpropyl)-1H-pyrazol-3-yl]formamido}-4-phenylbutanoic acid]	> 10000
124	C[C@@H](C[C@@H](CC(=O)O)NC(=O)c1cc(-c2ccccc2C(F)(F)F)n(C2CCCC2)n1)N1CCC(F)(F)C1 [compound 572, (3S,5S)-3-({1-cyclopentyl-5-[2-(trifluoromethyl)phenyl]-1H-pyrazol-3-yl}formamido)-5-(3,3-difluoropyrrolidin-1-yl)hexanoic acid]	
647	COc1cccc(OC)c1-c1cc(C(=O)N[C@@H](CCc2ccccc2)CC(=O)Nc2nnn[nH]2)nn1C1CCCC1 [compound 381, (3S)-3-{[1-cyclopentyl-5-(2,6-dimethoxyphenyl)-1H-pyrazol-3-yl]formamido}-5-phenyl-N-(1H-1,2,3,4-tetrazol-5-yl)pentanamide]	
1570	O=C(O)C[C@H](CCN1CCCC(F)(F)C1)NC(=O)c1cc(-c2ccc(Cl)cc2C(F)(F)F)n(C2CCCC2)n1 [compound 555, (3S)-3-({5-[4-chloro-2-(trifluoromethyl)phenyl]-1-cyclopentyl-1H-pyrazol-3-yl}formamido)-5-(3,3-difluoropiperidin-1-yl)pentanoic acid]	
1060	O=C(N[C@@H](CC(=O)N1CCCC(F)(F)C1)CS(=O)(=O)NC1CCC1)c1cc(-c2ccccc2C(F)(F)F)n(C2CCCC2)n1 [compound 541, N-[(2S)-1-(cyclobutylsulfamoyl)-4-(3,3-difluoropiperidin-1-yl)-4-oxobutan-2-yl]-1-cyclopentyl-5-[2-(trifluoromethyl)phenyl]-1H-pyrazole-3-carboxamide]	
231	CC1(C)CC(F)(F)CN1CC[C@@H](CC(=O)O)NC(=O)c1cc(-c2ccccc2C(F)(F)F)n(C2CCCC2)n1 [compound 612, (3S)-3-({1-cyclopentyl-5-[2-(trifluoromethyl)phenyl]-1H-pyrazol-3-yl}formamido)-5-(4,4-difluoro-2,2-dimethylpyrrolidin-1-yl)pentanoic acid]	
77	O=C(O)C[C@H](CCN1C[C@H](F)[C@@H](F)C1)NC(=O)c1cc(-c2ccccc2C(F)(F)F)n(C2CCCC2)n1 [compound 629, (3S)-3-({1-cyclopentyl-5-[2-(trifluoromethyl)phenyl]-1H-pyrazol-3-yl}formamido)-5-[(3S,4S)-3,4-difluoropyrrolidin-1-yl]pentanoic acid]	
718	CCCn1nc(C(=O)N[C@@H](CCN2CCCC(F)(F)C2)CC(=O)O)cc1-c1ccccc1C(F)(F)F [compound 580, (3S)-5-(3,3-difluoropiperidin-1-yl)-3-({1-propyl-5-[2-(trifluoromethyl)phenyl]-1H-pyrazol-3-yl}formamido)pentanoic acid]	
105	COCCN(C)C(=O)[C@H](CCc1ccccc1)NC(=O)c1cc(-c2ccccc2C(F)(F)F)n(C2CCCC2)n1 [compound 542, (2S)-2-({1-cyclopentyl-5-[2-(trifluoromethyl)phenyl]-1H-pyrazol-3-yl}formamido)-N-(2-methoxyethyl)-N-methyl-4-phenylbutanamide]	
1840	CCN(CC)CC[C@@H](CC(=O)NC1CCC1)NC(=O)c1cc(-c2c(OC)cccc2OC)n(C2CCCC2)n1 [compound 314, (3S)-N-cyclobutyl-3-{[1-cyclopentyl-5-(2,6-dimethoxyphenyl)-1H-pyrazol-3-yl]formamido}-5-(diethylamino)pentanamide]	
299	CC(C[C@@H](CC(=O)NC1CCC1)NC(=O)c1cc(-c2ccccc2C(F)(F)F)n(C2CCCC2)n1)N1CCC(F)(F)C1 (stereo partly drawn) [compound 573, (3S)-N-cyclobutyl-3-({1-cyclopentyl-5-[2-(trifluoromethyl)phenyl]-1H-pyrazol-3-yl}formamido)-5-(3,3-difluoropyrrolidin-1-yl)hexanamide]	
24	O=C(N[C@@H](CCN1C[C@H](F)[C@@H](F)C1)Cc1nnn[nH]1)c1cc(-c2ccccc2C(F)(F)F)n(C2CCCC2)n1 [compound 630]	
> 10000	COc1cccc(OC)c1-c1cc(C(=O)N[C@@H](CCN2CCCCC2)CC(N)=O)nn1C1CCCC1 [compound 352, (3S)-3-{[1-cyclopentyl-5-(2,6-dimethoxyphenyl)-1H-pyrazol-3-yl]formamido}-5-(piperidin-1-yl)pentanamide]	
	COc1cccc(OC)c1-c1cc(C(=O)N[C@@H](CCC2CCCCC2)CC(=O)O)nn1C1CCCCCCC1 [compound 647, (3S)-5-cyclohexyl-3-{[1-cyclooctyl-5-(2,6-dimethoxyphenyl)-1H-pyrazol-3-yl]formamido}pentanoic acid]	> 10000

SMILES	EC50 (read-out: EC50 (nM) Ave) [nM]	EC50 (EC50 (nM) Ave) [nM]
COc1cccc(OC)c1-c1cc(C(=O)N[C@@H](CC2CC2)C(=O)O)nn1C1CCCC1 [compound 385, (2S)-2-{[1-cyclopentyl-5-(2,6-dimethoxyphenyl)-1H-pyrazol-3-yl]formamido}-3-cyclopropylpropanoic acid]	> 10000	
